Test system: MCP-1 promoter
Test: MCP-1 promoter luciferase reporter in 3T3-L1 pre-adipocytes
Type: cell-based
Details: GW9662 30 μM
Description: 3T3-L1 cells (American Type Culture Collection, Manassas, Va.) were grown in 24-well plates in DMEM high glucose medium (Invitrogen, Carlsbad, Calif.) containing 10% fetal bovine serum (FBS) until 60-70% confluence. Before transfection, the medium was changed to 1% FBS. The cells cultured in 24-well plates were co-transfected with 0.8 μg plasmid DNA and 1 ng of pRL reporter control plasmid per well using F-1 transfection reagents (Targeting Systems, Santee, Calif.) according to the manufacturer's protocol. Transfection efficiencies were determined by cotransfecting the cells with a pcDNA™ 3.1/His/lacZ control vector at 24 h. The transfected cells were then treated with either a racemic ABA mixture (12.5 μM; Sigma) or rosiglitazone (1 μM; Cayman Chemicals, Ann Arbor, Mich.) for 24 hours. Designated wells were also treated with the PPAR γ antagonist GW9662 (30 μM; Cayman Chemicals). Transfected cells were harvested in reporter lysis reagent. Luciferase activity, normalized to pRL activity in the cell extracts was determined by using the dual luciferase reporter assay system (Promega, Madison, Wis.) in a TD-20/20 Single-Tube Luminometer (Turner Biosystems, Sunnyvale, Calif.). Relative luciferase activity (RLA) was calculated as a ratio of the chemiluminescence 10 seconds after the Luciferase Assay Reagent II (Promega) was added over the chemiluminescence 10 seconds after the Stop&Glo Reagent (Promega).
To further examine the effect of ABA on MCP-1 transactivation, 3T3-L1 preadipocytes were transfected with a MCP-1 promoter luciferase reporter construct and also cotransfected with a pCMX PPAR γ expression plasmid to increase endogenous PPAR γ activity. Cells were then treated with ABA (12.5 μM), rosiglitazone (1 μM), the PPAR γ antagonist GW9662 (30 μM), or a combination of agonist and inhibitor.

## O=C(Nc1ccccc1)c1cc([N+](=O)[O-])ccc1Cl [GW9662, reference compound]
  inhibition of the effects of ABA and rosiglitazone on MCP-1 promoter activity: inhibited

— US8367727B2, “Method of using abscisic acid to treat diseases and disorders” (priority 2006, dated 2013)
